Reference: patent US9326506B2, “Preparation method, agricultural composition and applications of natural brassinolide analogs” (CHENGDU NEWSUN CROPSCIENCE CO., LTD, priority 2012, dated 2016)

Tested on: rice
Test: Low temperature assay on rice seedlings
Assay type: in vivo
In short: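 Nine-day-old etiolated rice seedlings (grown on water at 30 °C±2 °C, dark) immersed in brassinolide analogues at 1–0.0001 mg/L or pure water, held at 1–5 °C for 24 hr. Plant height, leaf area, root weight read at 3, 6, 9, 12 days; leaf and tiller number at 12 days.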

CC(C)[C@H](C)[C@@H](O)[C@H](O)[C@@H](C)[C@H]1CCC2C3CC(=O)C4C[C@H](O)CC[C@]4(C)C3CC[C@@]21C (stereo partly shown) [BR4]
Area of leaf (0.0001 mg/l, 1 °C, 3 days): 9.8 cm^2
Height (0.0001 mg/l, 1 °C, 3 days): 6.8 cm
Weight of root (0.0001 mg/l, 1 °C, 3 days): 2.8 g
Area of leaf (0.0001 mg/l, 1 °C, 6 days): 11 cm^2
Height (0.0001 mg/l, 1 °C, 6 days): 6.9 cm
Weight of root (0.0001 mg/l, 1 °C, 6 days): 3 g
Area of leaf (0.0001 mg/l, 1 °C, 9 days): 12.2 cm^2
Height (0.0001 mg/l, 1 °C, 9 days): 7 cm
Weight of root (0.0001 mg/l, 1 °C, 9 days): 3.1 g
Area of leaf (0.0001 mg/l, 1 °C, 12 days): 13 cm^2
Height (0.0001 mg/l, 1 °C, 12 days): 7.2 cm
Number of leaf (0.0001 mg/l, 1 °C, 12 days): 3
Number of tiller (0.0001 mg/l, 1 °C, 12 days): 3
Weight of root (0.0001 mg/l, 1 °C, 12 days): 3.5 g
Area of leaf (0.0001 mg/l, 2 °C, 3 days): 10 cm^2
Height (0.0001 mg/l, 2 °C, 3 days): 6.8 cm
Weight of root (0.0001 mg/l, 2 °C, 3 days): 2.8 g
Area of leaf (0.0001 mg/l, 2 °C, 6 days): 11.7 cm^2
Height (0.0001 mg/l, 2 °C, 6 days): 7 cm
Weight of root (0.0001 mg/l, 2 °C, 6 days): 3.0 g
Area of leaf (0.0001 mg/l, 2 °C, 9 days): 12 cm^2
Height (0.0001 mg/l, 2 °C, 9 days): 7.1 cm
Weight of root (0.0001 mg/l, 2 °C, 9 days): 3.2 g
Area of leaf (0.0001 mg/l, 2 °C, 12 days): 13 cm^2
Height (0.0001 mg/l, 2 °C, 12 days): 7.2 cm
Number of leaf (0.0001 mg/l, 2 °C, 12 days): 3
Number of tiller (0.0001 mg/l, 2 °C, 12 days): 3
Weight of root (0.0001 mg/l, 2 °C, 12 days): 3.7 g
Area of leaf (0.0001 mg/l, 3 °C, 3 days): 10 cm^2
Height (0.0001 mg/l, 3 °C, 3 days): 6.9 cm
Weight of root (0.0001 mg/l, 3 °C, 3 days): 2.5 g
Area of leaf (0.0001 mg/l, 3 °C, 6 days): 11.8 cm^2
Height (0.0001 mg/l, 3 °C, 6 days): 7.1 cm
Weight of root (0.0001 mg/l, 3 °C, 6 days): 2.6 g
Area of leaf (0.0001 mg/l, 3 °C, 9 days): 12.1 cm^2
Height (0.0001 mg/l, 3 °C, 9 days): 7.4 cm
Weight of root (0.0001 mg/l, 3 °C, 9 days): 2.9 g
Area of leaf (0.0001 mg/l, 3 °C, 12 days): 13 cm^2
Height (0.0001 mg/l, 3 °C, 12 days): 7.4 cm
Number of leaf (0.0001 mg/l, 3 °C, 12 days): 3
Number of tiller (0.0001 mg/l, 3 °C, 12 days): 2
Weight of root (0.0001 mg/l, 3 °C, 12 days): 2.9 g
Area of leaf (0.0001 mg/l, 4 °C, 3 days): 10 cm^2
Height (0.0001 mg/l, 4 °C, 3 days): 6.9 cm
Weight of root (0.0001 mg/l, 4 °C, 3 days): 2.5 g
Area of leaf (0.0001 mg/l, 4 °C, 6 days): 11.5 cm^2
Height (0.0001 mg/l, 4 °C, 6 days): 7.1 cm
Weight of root (0.0001 mg/l, 4 °C, 6 days): 2.6 g
Area of leaf (0.0001 mg/l, 4 °C, 9 days): 13 cm^2
Height (0.0001 mg/l, 4 °C, 9 days): 7.5 cm
Weight of root (0.0001 mg/l, 4 °C, 9 days): 2.9 g
Area of leaf (0.0001 mg/l, 4 °C, 12 days): 13.4 cm^2
Height (0.0001 mg/l, 4 °C, 12 days): 7.5 cm
Number of leaf (0.0001 mg/l, 4 °C, 12 days): 3
Number of tiller (0.0001 mg/l, 4 °C, 12 days): 2
Weight of root (0.0001 mg/l, 4 °C, 12 days): 2.9 g
Area of leaf (0.0001 mg/l, 5 °C, 3 days): 10.2 cm^2
Height (0.0001 mg/l, 5 °C, 3 days): 7.0 cm
Weight of root (0.0001 mg/l, 5 °C, 3 days): 2.5 g
Area of leaf (0.0001 mg/l, 5 °C, 6 days): 12 cm^2
Height (0.0001 mg/l, 5 °C, 6 days): 7.3 cm
Weight of root (0.0001 mg/l, 5 °C, 6 days): 2.5 g
Area of leaf (0.0001 mg/l, 5 °C, 9 days): 13 cm^2
Height (0.0001 mg/l, 5 °C, 9 days): 7.5 cm
Weight of root (0.0001 mg/l, 5 °C, 9 days): 2.9 g
Area of leaf (0.0001 mg/l, 5 °C, 12 days): 13.4 cm^2
Height (0.0001 mg/l, 5 °C, 12 days): 7.6 cm
Number of leaf (0.0001 mg/l, 5 °C, 12 days): 3
Number of tiller (0.0001 mg/l, 5 °C, 12 days): 2
Weight of root (0.0001 mg/l, 5 °C, 12 days): 2.9 g
Area of leaf (0.001 mg/l, 1 °C, 3 days): 10 cm^2
Height (0.001 mg/l, 1 °C, 3 days): 6.9 cm
Weight of root (0.001 mg/l, 1 °C, 3 days): 2.8 g
Area of leaf (0.001 mg/l, 1 °C, 6 days): 11.3 cm^2
Height (0.001 mg/l, 1 °C, 6 days): 7 cm
Weight of root (0.001 mg/l, 1 °C, 6 days): 3.1 g
Area of leaf (0.001 mg/l, 1 °C, 9 days): 12.6 cm^2
Height (0.001 mg/l, 1 °C, 9 days): 7.1 cm
Weight of root (0.001 mg/l, 1 °C, 9 days): 3.2 g
Area of leaf (0.001 mg/l, 1 °C, 12 days): 13.6 cm^2
Height (0.001 mg/l, 1 °C, 12 days): 7.4 cm
Number of leaf (0.001 mg/l, 1 °C, 12 days): 3
Number of tiller (0.001 mg/l, 1 °C, 12 days): 3
Weight of root (0.001 mg/l, 1 °C, 12 days): 3.7 g
Area of leaf (0.001 mg/l, 2 °C, 3 days): 9.8 cm^2
Height (0.001 mg/l, 2 °C, 3 days): 6.9 cm
Weight of root (0.001 mg/l, 2 °C, 3 days): 2.8 g
Area of leaf (0.001 mg/l, 2 °C, 6 days): 11.6 cm^2
Height (0.001 mg/l, 2 °C, 6 days): 7 cm
Weight of root (0.001 mg/l, 2 °C, 6 days): 3.0 g
Area of leaf (0.001 mg/l, 2 °C, 9 days): 12 cm^2
Height (0.001 mg/l, 2 °C, 9 days): 7.1 cm
Weight of root (0.001 mg/l, 2 °C, 9 days): 3 g
Area of leaf (0.001 mg/l, 2 °C, 12 days): 13.1 cm^2
Height (0.001 mg/l, 2 °C, 12 days): 7.3 cm
Number of leaf (0.001 mg/l, 2 °C, 12 days): 3
Number of tiller (0.001 mg/l, 2 °C, 12 days): 3
Weight of root (0.001 mg/l, 2 °C, 12 days): 3.9 g
Area of leaf (0.001 mg/l, 3 °C, 3 days): 10 cm^2
Height (0.001 mg/l, 3 °C, 3 days): 7 cm
Weight of root (0.001 mg/l, 3 °C, 3 days): 2.5 g
Area of leaf (0.001 mg/l, 3 °C, 6 days): 12 cm^2
Height (0.001 mg/l, 3 °C, 6 days): 7.2 cm
Weight of root (0.001 mg/l, 3 °C, 6 days): 2.6 g
Area of leaf (0.001 mg/l, 3 °C, 9 days): 12.2 cm^2
Height (0.001 mg/l, 3 °C, 9 days): 7.4 cm
Weight of root (0.001 mg/l, 3 °C, 9 days): 2.9 g
Area of leaf (0.001 mg/l, 3 °C, 12 days): 13 cm^2
Height (0.001 mg/l, 3 °C, 12 days): 7.5 cm
Number of leaf (0.001 mg/l, 3 °C, 12 days): 3
Number of tiller (0.001 mg/l, 3 °C, 12 days): 2
Weight of root (0.001 mg/l, 3 °C, 12 days): 2.9 g
Area of leaf (0.001 mg/l, 4 °C, 3 days): 10 cm^2
Height (0.001 mg/l, 4 °C, 3 days): 7.1 cm
Weight of root (0.001 mg/l, 4 °C, 3 days): 2.5 g
Area of leaf (0.001 mg/l, 4 °C, 6 days): 12 cm^2
Height (0.001 mg/l, 4 °C, 6 days): 7.3 cm
Weight of root (0.001 mg/l, 4 °C, 6 days): 2.6 g
Area of leaf (0.001 mg/l, 4 °C, 9 days): 13 cm^2
Height (0.001 mg/l, 4 °C, 9 days): 7.4 cm
Weight of root (0.001 mg/l, 4 °C, 9 days): 2.9 g
Area of leaf (0.001 mg/l, 4 °C, 12 days): 13.1 cm^2
Height (0.001 mg/l, 4 °C, 12 days): 7.5 cm
Number of leaf (0.001 mg/l, 4 °C, 12 days): 3
Number of tiller (0.001 mg/l, 4 °C, 12 days): 2
Weight of root (0.001 mg/l, 4 °C, 12 days): 2.9 g
Area of leaf (0.001 mg/l, 5 °C, 3 days): 10.2 cm^2
Height (0.001 mg/l, 5 °C, 3 days): 7.2 cm
Weight of root (0.001 mg/l, 5 °C, 3 days): 2.8 g
Area of leaf (0.001 mg/l, 5 °C, 6 days): 14 cm^2
Height (0.001 mg/l, 5 °C, 6 days): 7.4 cm
Weight of root (0.001 mg/l, 5 °C, 6 days): 2.9 g
Area of leaf (0.001 mg/l, 5 °C, 9 days): 15.4 cm^2
Height (0.001 mg/l, 5 °C, 9 days): 7.4 cm
Weight of root (0.001 mg/l, 5 °C, 9 days): 3.0 g
Area of leaf (0.001 mg/l, 5 °C, 12 days): 16 cm^2
Height (0.001 mg/l, 5 °C, 12 days): 7.9 cm
Number of leaf (0.001 mg/l, 5 °C, 12 days): 3
Number of tiller (0.001 mg/l, 5 °C, 12 days): 3
Weight of root (0.001 mg/l, 5 °C, 12 days): 3.7 g
Area of leaf (0.01 mg/l, 1 °C, 3 days): 9.2 cm^2
Height (0.01 mg/l, 1 °C, 3 days): 6.7 cm
Weight of root (0.01 mg/l, 1 °C, 3 days): 2.8 g
Area of leaf (0.01 mg/l, 1 °C, 6 days): 11.6 cm^2
Height (0.01 mg/l, 1 °C, 6 days): 7.1 cm
Weight of root (0.01 mg/l, 1 °C, 6 days): 3.0 g
Area of leaf (0.01 mg/l, 1 °C, 9 days): 12.4 cm^2
Height (0.01 mg/l, 1 °C, 9 days): 7.4 cm
Weight of root (0.01 mg/l, 1 °C, 9 days): 3.1 g
Area of leaf (0.01 mg/l, 1 °C, 12 days): 13.6 cm^2
Height (0.01 mg/l, 1 °C, 12 days): 7.5 cm
Number of leaf (0.01 mg/l, 1 °C, 12 days): 3
Number of tiller (0.01 mg/l, 1 °C, 12 days): 3
Weight of root (0.01 mg/l, 1 °C, 12 days): 3.9 g
Area of leaf (0.01 mg/l, 2 °C, 3 days): 10 cm^2
Height (0.01 mg/l, 2 °C, 3 days): 7 cm
Weight of root (0.01 mg/l, 2 °C, 3 days): 2.8 g
Area of leaf (0.01 mg/l, 2 °C, 6 days): 11 cm^2
Height (0.01 mg/l, 2 °C, 6 days): 7.2 cm
Weight of root (0.01 mg/l, 2 °C, 6 days): 3 g
Area of leaf (0.01 mg/l, 2 °C, 9 days): 12.5 cm^2
Height (0.01 mg/l, 2 °C, 9 days): 7.4 cm
Weight of root (0.01 mg/l, 2 °C, 9 days): 3 g
Area of leaf (0.01 mg/l, 2 °C, 12 days): 13.4 cm^2
Height (0.01 mg/l, 2 °C, 12 days): 7.5 cm
Number of leaf (0.01 mg/l, 2 °C, 12 days): 3
Number of tiller (0.01 mg/l, 2 °C, 12 days): 3
Weight of root (0.01 mg/l, 2 °C, 12 days): 3.2 g
Area of leaf (0.01 mg/l, 3 °C, 3 days): 10.2 cm^2
Height (0.01 mg/l, 3 °C, 3 days): 7 cm
Weight of root (0.01 mg/l, 3 °C, 3 days): 2.5 g
Area of leaf (0.01 mg/l, 3 °C, 6 days): 12 cm^2
Height (0.01 mg/l, 3 °C, 6 days): 7.3 cm
Weight of root (0.01 mg/l, 3 °C, 6 days): 2.6 g
Area of leaf (0.01 mg/l, 3 °C, 9 days): 12.1 cm^2
